The target of one series is HSV polymerase (Human herpesvirus 1, UniProt P04293). The experiment in a line: HSV polymerase assay (Table 1, Polymerase IC50). It counts as biochemical. Particulars: modified polymerase SPA assay.
The target in a further series is VZV polymerase (Varicella-zoster virus, UniProt P09252). The experiment in a line: VZV polymerase assay (Table 1, Polymerase IC50). Type of series: biochemical. Particulars: modified polymerase SPA assay.
A further series has as its target T1, HCMV polymerase (Human cytomegalovirus, UniProt P08546).
T1 construct: made in house; host or cells: recombinant baculovirus-infected SF-9 cells
Nature of the series: HCMV polymerase assay (scintillation proximity assay, modified version). It counts as biochemical. The settings on record: for IC50: modified HCMV polymerase SPA assay, compounds diluted in 100% DMSO, 4.5 mM DTT. As for the experimental part:
The HCMV polymerase assay is performed using a scintillation proximity assay (SPA) as described in several references, such as N. D. Cook, et al., Pharmaceutical Manufacturing International, pages 49-53 (1992); K. Takeuchi, Laboratory Practice, September issue (1992); U.S. Pat. No. 4,568,649 (1986); which are incorporated by reference herein. Reactions are performed in 96-well plates. The assay is conducted in 100 μl volume with 5.4 mM HEPES (pH 7.5), 11.7 mM KCl, 4.5 mM MgCl2, 0.36 mg/ml BSA, and 90 nM ^3H-dTTP. Assays are run with and without CHAPS, (3-[(3-cholamidopropyl)-dimethylammonio]-1-propane-sulfonate) at a final concentration of 2 mM. HCMV polymerase is diluted in enzyme dilution buffer containing 50% glycerol, 250 mM NaCl, 10 mM HEPES (pH 7.5), 100 μg/ml BSA, and 0.01% sodium azide. The HCMV polymerase, which is expressed in recombinant baculovirus-infected SF-9 cells and purified according to literature procedures, is added at 10% (or 10 μl) of the final reaction volume, i.e., 100 μl. Compounds are diluted in 50% DMSO and 10 μl are added to each well. Control wells contain an equivalent concentration of DMSO. Unless noted otherwise, reactions are initiated via the addition of 6 nM biotinylated poly(dA)-oligo(dT) template/primer to reaction mixtures containing the enzyme, substrate, and compounds of interest. Plates are incubated in a 25° C. or 37° C. H2O bath and terminated via the addition of 40 μl/reaction of 0.5 M EDTA (pH 8) per well. Reactions are terminated within the time-frame during which substrate incorporation is linear and varied depending upon the enzyme and conditions used, i.e., 30 min. for HCMV polymerase. Ten μl of streptavidin-SPA beads (20 mg/ml in PBS/10% glycerol) are added following termination of the reaction. Plates are incubated 10 min. at 37° C., then equilibrated to room temperature, and counted on a Packard Topcount. Linear regressions are performed and IC50's are calculated using computer software.
A modified version of the above HCMV polymerase assay is performed as described above, but with the following changes: Compounds are diluted in 100% DMSO until final dilution into assay buffer. In the previous assay, compounds are diluted in 50% DMSO. 4.5 mM dithiotherotol (DTT) is added to the polymerase buffer. […] All results are listed as Polymerase IC50 (μM) values. In Table 1, the term “nd” refers to activity data not determined.
Background: Scintillation proximity formats need no separation of bound from free tracer.

T1 sequence (P08546 whole entry): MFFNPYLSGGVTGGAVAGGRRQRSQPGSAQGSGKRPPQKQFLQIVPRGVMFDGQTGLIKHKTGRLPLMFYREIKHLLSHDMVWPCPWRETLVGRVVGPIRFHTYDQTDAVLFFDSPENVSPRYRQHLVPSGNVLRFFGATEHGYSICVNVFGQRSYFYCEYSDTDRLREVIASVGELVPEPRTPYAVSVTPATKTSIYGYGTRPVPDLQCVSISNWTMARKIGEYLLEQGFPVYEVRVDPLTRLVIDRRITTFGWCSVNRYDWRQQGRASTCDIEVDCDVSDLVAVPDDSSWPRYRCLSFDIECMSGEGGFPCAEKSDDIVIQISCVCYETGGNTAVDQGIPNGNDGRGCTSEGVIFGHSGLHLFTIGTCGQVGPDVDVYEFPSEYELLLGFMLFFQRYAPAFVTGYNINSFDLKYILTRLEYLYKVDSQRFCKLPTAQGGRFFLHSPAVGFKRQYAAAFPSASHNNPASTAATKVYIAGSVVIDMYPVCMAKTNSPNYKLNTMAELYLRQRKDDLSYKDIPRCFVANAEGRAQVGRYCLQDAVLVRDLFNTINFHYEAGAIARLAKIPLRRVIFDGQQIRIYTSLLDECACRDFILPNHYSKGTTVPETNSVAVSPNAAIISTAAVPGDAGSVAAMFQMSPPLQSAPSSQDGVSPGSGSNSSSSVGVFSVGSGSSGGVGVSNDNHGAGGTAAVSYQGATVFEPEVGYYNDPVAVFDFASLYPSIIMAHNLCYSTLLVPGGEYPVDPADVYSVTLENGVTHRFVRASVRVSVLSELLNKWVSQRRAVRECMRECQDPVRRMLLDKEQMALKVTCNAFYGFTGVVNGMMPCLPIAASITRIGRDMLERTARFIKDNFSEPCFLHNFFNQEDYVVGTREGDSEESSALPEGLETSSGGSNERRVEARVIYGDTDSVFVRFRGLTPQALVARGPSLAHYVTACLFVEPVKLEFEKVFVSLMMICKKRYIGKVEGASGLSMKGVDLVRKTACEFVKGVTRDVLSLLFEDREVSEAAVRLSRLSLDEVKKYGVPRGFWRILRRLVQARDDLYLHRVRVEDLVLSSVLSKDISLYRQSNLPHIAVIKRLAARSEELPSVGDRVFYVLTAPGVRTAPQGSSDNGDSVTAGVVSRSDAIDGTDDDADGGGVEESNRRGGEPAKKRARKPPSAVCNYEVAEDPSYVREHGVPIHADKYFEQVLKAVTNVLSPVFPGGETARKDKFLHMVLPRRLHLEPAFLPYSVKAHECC
VZV polymerase, sequence (P09252 whole entry): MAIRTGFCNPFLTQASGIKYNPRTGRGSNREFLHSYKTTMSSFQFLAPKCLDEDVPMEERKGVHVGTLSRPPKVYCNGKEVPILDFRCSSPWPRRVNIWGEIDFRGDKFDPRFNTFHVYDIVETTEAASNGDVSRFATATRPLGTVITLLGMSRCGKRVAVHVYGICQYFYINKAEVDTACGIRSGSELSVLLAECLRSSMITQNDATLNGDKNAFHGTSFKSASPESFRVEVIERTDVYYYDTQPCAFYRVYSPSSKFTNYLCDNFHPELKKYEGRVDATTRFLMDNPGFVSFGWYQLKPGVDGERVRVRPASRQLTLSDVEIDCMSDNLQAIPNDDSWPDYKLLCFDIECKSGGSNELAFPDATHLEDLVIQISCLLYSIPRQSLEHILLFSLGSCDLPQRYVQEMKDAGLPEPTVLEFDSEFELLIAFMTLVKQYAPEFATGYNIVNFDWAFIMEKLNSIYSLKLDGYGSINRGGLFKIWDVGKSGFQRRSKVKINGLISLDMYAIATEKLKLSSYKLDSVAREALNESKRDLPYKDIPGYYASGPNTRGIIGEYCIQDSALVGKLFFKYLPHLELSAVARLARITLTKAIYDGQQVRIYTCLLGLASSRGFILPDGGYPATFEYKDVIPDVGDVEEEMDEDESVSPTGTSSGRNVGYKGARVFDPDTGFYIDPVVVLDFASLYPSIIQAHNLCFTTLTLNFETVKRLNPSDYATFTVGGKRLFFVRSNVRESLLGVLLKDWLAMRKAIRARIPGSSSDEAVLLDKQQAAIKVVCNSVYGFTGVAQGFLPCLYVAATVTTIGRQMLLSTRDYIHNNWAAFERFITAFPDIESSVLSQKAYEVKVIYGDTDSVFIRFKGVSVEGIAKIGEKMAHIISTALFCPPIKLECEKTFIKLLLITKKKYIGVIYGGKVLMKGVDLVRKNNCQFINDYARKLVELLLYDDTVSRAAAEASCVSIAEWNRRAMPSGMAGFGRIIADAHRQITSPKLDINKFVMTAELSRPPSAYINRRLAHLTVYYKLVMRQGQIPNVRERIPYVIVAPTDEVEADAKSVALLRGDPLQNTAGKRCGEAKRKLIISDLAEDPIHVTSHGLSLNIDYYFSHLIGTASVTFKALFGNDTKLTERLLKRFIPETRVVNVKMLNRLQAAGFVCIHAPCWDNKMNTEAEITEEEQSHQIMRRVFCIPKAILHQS
HSV polymerase, sequence (P04293 whole entry): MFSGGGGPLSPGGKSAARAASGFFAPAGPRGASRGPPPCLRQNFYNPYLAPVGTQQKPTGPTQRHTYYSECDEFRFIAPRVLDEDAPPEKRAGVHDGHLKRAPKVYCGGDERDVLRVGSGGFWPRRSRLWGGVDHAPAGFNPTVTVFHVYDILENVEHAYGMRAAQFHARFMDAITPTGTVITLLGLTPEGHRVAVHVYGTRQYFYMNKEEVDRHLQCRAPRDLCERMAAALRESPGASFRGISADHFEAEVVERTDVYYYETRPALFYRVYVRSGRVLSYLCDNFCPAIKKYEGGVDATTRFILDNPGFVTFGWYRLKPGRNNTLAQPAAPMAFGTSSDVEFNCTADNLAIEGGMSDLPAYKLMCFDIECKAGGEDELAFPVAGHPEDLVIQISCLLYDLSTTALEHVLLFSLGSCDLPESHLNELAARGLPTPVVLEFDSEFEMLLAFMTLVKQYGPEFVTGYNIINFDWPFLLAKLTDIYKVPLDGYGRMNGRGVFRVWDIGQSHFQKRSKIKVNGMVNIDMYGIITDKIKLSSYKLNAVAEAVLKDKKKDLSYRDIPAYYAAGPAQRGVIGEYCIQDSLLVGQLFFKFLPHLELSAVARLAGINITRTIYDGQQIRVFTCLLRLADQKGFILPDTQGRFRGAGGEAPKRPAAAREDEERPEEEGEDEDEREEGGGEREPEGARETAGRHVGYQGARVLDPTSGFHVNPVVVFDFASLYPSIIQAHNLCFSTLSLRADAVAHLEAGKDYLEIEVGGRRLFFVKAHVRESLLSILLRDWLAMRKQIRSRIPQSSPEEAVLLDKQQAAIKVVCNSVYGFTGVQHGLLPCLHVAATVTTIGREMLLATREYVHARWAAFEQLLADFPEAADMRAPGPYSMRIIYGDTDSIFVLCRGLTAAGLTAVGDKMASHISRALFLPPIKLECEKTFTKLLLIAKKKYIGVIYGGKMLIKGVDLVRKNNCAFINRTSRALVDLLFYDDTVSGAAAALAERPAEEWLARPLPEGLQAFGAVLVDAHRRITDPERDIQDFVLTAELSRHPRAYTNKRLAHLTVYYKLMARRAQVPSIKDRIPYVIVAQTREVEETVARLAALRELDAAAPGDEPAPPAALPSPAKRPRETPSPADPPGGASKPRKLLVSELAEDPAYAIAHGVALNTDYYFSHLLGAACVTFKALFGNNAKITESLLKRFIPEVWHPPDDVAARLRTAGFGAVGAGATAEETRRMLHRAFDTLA

For the compound `Cc1nc2c(cc1Br)c(=O)c(C(=O)NCc1ccc(Cl)cc1)cn2C` [Example 1, 6-bromo-N-(4-chlorobenzyl)-1,7-dimethyl-4-oxo-1,4-dihydro[1,8]naphthyridine-3-carboxamide], the melting point was 266 to 268 °C.
Compound `Cc1nc2c(cc1C#CCO)c(=O)c(C(=O)NCc1ccc(Cl)cc1)cn2C` [Example 2, N-(4-chlorobenzyl)-6-(3-hydroxy-1-propynyl)-1,7-dimethyl-4-oxo-1,4-dihydro[1,8]naphthyridine-3-carboxamide] gave a melting point of 217 to 218 °C. For the same compound, the IC50 against HSV polymerase came to 1900 nM. For the same compound, the IC50 at VZV polymerase is 1100 nM. At HCMV polymerase, this compound registered an IC50 of 1800 nM.
For `Cc1nc2c(cc1CCCO)c(=O)c(C(=O)NCc1ccc(Cl)cc1)cn2C` [Example 3, N-(4-chlorobenzyl)-6-(3-hydroxypropyl)-1,7-dimethyl-4-oxo-1,4-dihydro[1,8]naphthyridine-3-carboxamide], in that order: 176 to 177 °C, 2400 nM, 1400 nM and 2700 nM.
`COc1nc2c(cc1I)c(=O)c(C(=O)NCc1ccc(Cl)cc1)cn2C` [Example 4, N-(4-Chlorobenzyl)-6-iodo-7-methoxy-1-methyl-4-oxo-1,4-dihydro[1,8]naphthyridine-3-carboxamide] displayed a half-maximal inhibitory concentration (IC50) against HCMV polymerase of 22300 nM.
On to `Cn1cc(C(=O)NCc2ccc(Cl)cc2)c(=O)c2ccc(=O)[nH]c21` [Example 5, N-(4-Chlorobenzyl)-1-methyl-4,7-dioxo-1,4,7,8-tetrahydro[1,8]naphthyridine-3-carboxamide], for which, at HCMV polymerase, half-maximal inhibition (IC50) was put at 17100 nM.
`COc1nc2c(cc1C#CCO)c(=O)c(C(=O)NCc1ccc(Cl)cc1)cn2C` [Example 6, N-(4-chlorobenzyl)-6-(3-hydroxy-1-propynyl)-7-methoxy-1-methyl-4-oxo-1,4-dihydro[1,8]naphthyridine-3-carboxamide] yielded a half-maximal inhibitory concentration (IC50) against HCMV polymerase of 1170 nM.
As for `COc1nc2c(cc1CCCO)c(=O)c(C(=O)NCc1ccc(Cl)cc1)cn2C` [Example 7, N-(4-Chlorobenzyl)-6-(3-hydroxypropyl)-7-methoxy-1-methyl-4-oxo-1,4-dihydro[1,8]naphthyridine-3-carboxamide], on HCMV polymerase, half-maximal inhibition (IC50) required 460 nM.
Compound `CCOC(=O)c1cc2c(=O)c(C(=O)NCc3ccc(Cl)cc3)cn(C)c2nc1OC` [Example 8, Ethyl 6-{[(4-chlorobenzyl)amino]carbonyl}-2-methoxy-8-methyl-5-oxo-5,8-dihydro[1,8]naphthyridine-3-carboxylate] came in with an inhibition at 20 µM against HCMV polymerase (at 20 μM) of 37%.

A word on the melting point: it is the temperature of the solid-liquid transition. The IC50 is the concentration needed to halve the response being measured. Lower therefore signals higher potency. What is called inhibition is how much of the control response was suppressed. A higher inhibition goes with strong suppression.

Source of the values: patent US6693114B2, “4-oxo-1,4-dihydro[1,8]naphthyridine-3-carboxamides as antiviral agents” (Pharmacia & Upjohn Company, priority 2000, dated 2004).
